Assay results from publication PMC6789174 (Drug Design, Development and Therapy, 2019).
In brackets after ≈: the same amount, converted by molar mass.

Legend:
Acetylcholinesterase = Acetylcholinesterase (Homo sapiens, UniProt P22303); assay: biochemical
[1] = DPPH free radical scavenging
[2] = tested on: Agrobacterium tumefaction; assay: Anti-bacterial activity, agar well diffusion; format: cell-based; settings: for MIC: read-out: MIC, Agrobacterium tumefaction; for zone of inhibition at 10 µg/mL / zone of inhibition at 20 µg/mL / zone of inhibition at 30 µg/mL: read-out: ZI (Zone of inhibition), Agrobacterium tumefaction
porcine α-amylase = target: T1, porcine α-amylase (Sus scrofa, UniProt P00690); assay: biochemical; settings: for inhibition at 125 µg/mL: read-out: %Inhibition (mean ± SEM), alpha amylase, concentration 125 µg/mL; for inhibition at 250 µg/mL: read-out: %Inhibition (mean ± SEM), alpha amylase, concentration 250 µg/mL; for inhibition at 1000 µg/mL: read-out: %Inhibition (mean ± SEM), alpha amylase, concentration 1000 µg/mL
T1 sequence (P00690 16-511): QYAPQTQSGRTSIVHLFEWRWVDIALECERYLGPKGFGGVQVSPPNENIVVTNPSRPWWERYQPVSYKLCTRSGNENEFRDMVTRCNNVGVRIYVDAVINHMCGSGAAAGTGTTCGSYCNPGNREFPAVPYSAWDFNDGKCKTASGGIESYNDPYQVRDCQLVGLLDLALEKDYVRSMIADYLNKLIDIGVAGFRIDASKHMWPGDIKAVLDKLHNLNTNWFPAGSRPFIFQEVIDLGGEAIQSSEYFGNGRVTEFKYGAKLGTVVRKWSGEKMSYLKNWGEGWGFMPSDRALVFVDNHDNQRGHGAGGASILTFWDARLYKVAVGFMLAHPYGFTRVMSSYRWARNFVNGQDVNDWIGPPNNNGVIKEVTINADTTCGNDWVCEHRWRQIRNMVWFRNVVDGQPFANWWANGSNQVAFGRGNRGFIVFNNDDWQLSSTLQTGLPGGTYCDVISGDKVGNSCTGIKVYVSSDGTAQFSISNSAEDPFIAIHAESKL

glucose-6-phosphatase = target: T2, glucose-6-phosphatase (Homo sapiens, UniProt P35575); assay: Glucose-6-phosphatase activity; format: biochemical; settings: 33°C, pH 6.7, control 72.0
T2 sequence (P35575 1-357): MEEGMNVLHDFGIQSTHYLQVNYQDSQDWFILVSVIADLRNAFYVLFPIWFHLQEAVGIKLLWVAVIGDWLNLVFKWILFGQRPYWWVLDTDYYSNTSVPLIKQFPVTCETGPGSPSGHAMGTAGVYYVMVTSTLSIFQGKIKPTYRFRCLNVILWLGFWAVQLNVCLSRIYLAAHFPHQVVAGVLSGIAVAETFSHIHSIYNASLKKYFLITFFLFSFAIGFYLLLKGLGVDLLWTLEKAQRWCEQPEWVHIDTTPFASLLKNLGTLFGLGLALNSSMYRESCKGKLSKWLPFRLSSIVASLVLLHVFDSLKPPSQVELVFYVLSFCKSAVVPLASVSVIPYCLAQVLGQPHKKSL

Proteus vulgaris = assay: Anti-bacterial activity, agar well diffusion; format: cell-based; settings: for MIC: read-out: MIC, Proteus vulgaris; for zone of inhibition at 10 µg/mL / zone of inhibition at 20 µg/mL / zone of inhibition at 30 µg/mL: read-out: ZI (Zone of inhibition), Proteus vulgaris
Staphylococcus aureus = assay: Anti-bacterial activity, agar well diffusion; format: cell-based; settings: for MIC: read-out: MIC, Staphylococcus aureus; for zone of inhibition at 10 µg/mL / zone of inhibition at 20 µg/mL / zone of inhibition at 30 µg/mL: read-out: ZI (Zone of inhibition), Staphylococcus aureus
Butyrylcholinesterase = Butyrylcholinesterase (Homo sapiens, UniProt P06276); assay: Anticholinesterase assay; format: biochemical; settings: for inhibition at 125 µg/mL / inhibition at 250 µg/mL / inhibition at 500 µg/mL / inhibition at 1000 µg/mL: read-out: %BChE Inhibition (mean ± SEM)
[3] = ABTS free radical scavenging
[4] = read-out: %AChE Inhibition (mean ± SEM)

Butyrylcholinesterase, sequence (P06276 29-602): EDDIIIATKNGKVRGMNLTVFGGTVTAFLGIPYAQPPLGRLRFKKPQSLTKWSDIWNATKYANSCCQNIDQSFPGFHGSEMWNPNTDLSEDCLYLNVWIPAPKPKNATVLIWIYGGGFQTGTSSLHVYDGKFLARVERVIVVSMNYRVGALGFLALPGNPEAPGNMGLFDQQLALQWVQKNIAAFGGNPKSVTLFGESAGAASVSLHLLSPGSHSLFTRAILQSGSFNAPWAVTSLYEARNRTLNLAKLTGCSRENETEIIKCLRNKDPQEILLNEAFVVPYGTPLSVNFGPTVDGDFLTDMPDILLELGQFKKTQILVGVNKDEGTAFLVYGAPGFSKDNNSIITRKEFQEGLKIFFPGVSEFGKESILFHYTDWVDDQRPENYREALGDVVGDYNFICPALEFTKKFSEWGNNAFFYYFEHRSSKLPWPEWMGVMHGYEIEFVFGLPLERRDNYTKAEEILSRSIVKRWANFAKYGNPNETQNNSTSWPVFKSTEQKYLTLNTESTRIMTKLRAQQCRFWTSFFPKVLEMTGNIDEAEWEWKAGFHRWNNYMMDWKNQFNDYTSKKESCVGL
Acetylcholinesterase, sequence (P22303 32-614, species assumed): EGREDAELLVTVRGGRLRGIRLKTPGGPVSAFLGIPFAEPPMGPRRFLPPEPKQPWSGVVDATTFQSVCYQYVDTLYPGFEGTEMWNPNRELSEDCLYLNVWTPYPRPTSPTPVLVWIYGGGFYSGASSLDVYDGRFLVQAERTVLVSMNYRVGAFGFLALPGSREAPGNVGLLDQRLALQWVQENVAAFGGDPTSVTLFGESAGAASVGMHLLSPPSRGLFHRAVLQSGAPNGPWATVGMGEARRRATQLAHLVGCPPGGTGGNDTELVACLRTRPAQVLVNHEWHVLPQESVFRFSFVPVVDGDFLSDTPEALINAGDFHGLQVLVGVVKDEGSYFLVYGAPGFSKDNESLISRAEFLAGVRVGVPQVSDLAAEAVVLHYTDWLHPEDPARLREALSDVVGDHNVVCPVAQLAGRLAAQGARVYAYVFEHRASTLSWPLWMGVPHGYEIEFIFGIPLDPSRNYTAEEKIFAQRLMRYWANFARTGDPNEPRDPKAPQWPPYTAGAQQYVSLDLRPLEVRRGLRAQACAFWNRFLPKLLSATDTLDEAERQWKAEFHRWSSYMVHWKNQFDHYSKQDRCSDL

Structure (SMILES)	IC50 (Acetylcholinesterase) [µM]	inhibition at 125 µg/mL (Acetylcholinesterase; [4]) [%]	inhibition at 250 µg/mL (Acetylcholinesterase; [4]) [%]	inhibition at 1000 µg/mL (Acetylcholinesterase; [4]) [%]	DPPH IC50 [1] [µg/mL]	DPPH % I (mean ± S.E.M) ([1]; concentration 125 μg/mL) [%]	DPPH % I (mean ± S.E.M) ([1]; concentration 250 μg/mL) [%]	DPPH % I (mean ± S.E.M) ([1]; concentration 500 μg/mL) [%]	DPPH % I (mean ± S.E.M) ([1]; concentration 1000 μg/mL) [%]	MIC [2] [µg/mL]	zone of inhibition at 10 µg/mL [2] [mm]	zone of inhibition at 20 µg/mL [2] [mm]	zone of inhibition at 30 µg/mL [2] [mm]	IC50 (porcine α-amylase) [µM]	inhibition at 125 µg/mL (porcine α-amylase) [%]	ABTS IC50 [3] [µg/mL]	ABTS % I (mean ± S.E.M) ([3]; concentration 125 μg/mL) [%]	ABTS % I (mean ± S.E.M) ([3]; concentration 250 μg/mL) [%]	ABTS % I (mean ± S.E.M) ([3]; concentration 500 μg/mL) [%]	ABTS % I (mean ± S.E.M) ([3]; concentration 1000 μg/mL) [%]	further results
S=C(Nc1ccccc1)NC(c1ccccn1)C(Cc1ccccc1)Cc1ccccc1 (stereo not drawn) [Compound III, 1-(2-benzyl-3-phenyl-1-(pyridine-2-yl)propyl)-3-phenylthiourea]	144	62.2 ± 1.12	66.5 ± 2.08	84.3 ± 1.12	79	61.14±0.177	64.74 ± 0.267	66.07 ± 0.283	67.45 ± 0.095	11.6 (≈ 26.6 µM)	15	20	26	263	50.1 ± 2.11	80	64.77 ±0.087	66.25 ±0.123	68.27 ± 0.532	69.11 ± 0.234	inhibition at 500 µg/mL (Acetylcholinesterase; [4]): 75.7 ± 1.15%; %Inhibition (mean ± SEM), alpha amylase (porcine α-amylase; concentration 250 μg/mL): 57.91 ± 0.43%; inhibition at 250 µg/mL (porcine α-amylase): 62.5 ± 1.24%; inhibition at 1000 µg/mL (porcine α-amylase): 65.8 ± 1.13%; Total Activity of glucose-6-phosphatase (glucose-6-phosphatase; concentration 125 µg/mL): 32.04 mg of P released per hour; Total Activity of glucose-6-phosphatase (glucose-6-phosphatase; concentration 250 µg/mL): 28.35 mg of P released per hour; Total Activity of glucose-6-phosphatase (glucose-6-phosphatase; concentration 500 µg/mL): 27.10 mg of P released per hour; MIC (Proteus vulgaris): 15 µg/mL (≈ 34.2 µM); zone of inhibition at 10 µg/mL (Proteus vulgaris): 12 mm; zone of inhibition at 20 µg/mL (Proteus vulgaris): 16 mm; zone of inhibition at 30 µg/mL (Proteus vulgaris): 22 mm; MIC (Staphylococcus aureus): 14.9 µg/mL (≈ 34.1 µM); zone of inhibition at 10 µg/mL (Staphylococcus aureus): 15 mm; zone of inhibition at 20 µg/mL (Staphylococcus aureus): 16 mm; zone of inhibition at 30 µg/mL (Staphylococcus aureus): 19 mm; IC50 (Butyrylcholinesterase): 183 µM; inhibition at 125 µg/mL (Butyrylcholinesterase): 58.3 ± 1.06%; inhibition at 250 µg/mL (Butyrylcholinesterase): 61.8 ± 1.54%; inhibition at 500 µg/mL (Butyrylcholinesterase): 63.8 ± 1.53%; inhibition at 1000 µg/mL (Butyrylcholinesterase): 68.5 ± 1.07%
S=C(NC(c1ccccn1)C(Cc1ccccc1)Cc1ccccc1)NC(c1ccccn1)C(Cc1ccccc1)Cc1ccccc1 (stereo not drawn) [Compound I, 1,3-bis(2-benzyl-3-phenyl-1-(pyridine-2-yl)propyl)thiourea]	1550	38.6 ± 1.33	46.1 ± 1.85	68.1 ± 1.4	67	78.55 ± 1.73	80.21 ± 1.21	82.16 ± 1.01	86.67 ± 1.20	4.02 (≈ 6.21 µM)	21	24	26	130	60.2 ± 1.03	66	77.55 ± 1.93	78.21 ± 1.21	80.16 ± 2.01	81.67 ± 1.20	%AChE Inhibition (mean ± SEM) (Acetylcholinesterase; concentration 500 μg/mL): 55.59 ± 1.23%; inhibition at 250 µg/mL (porcine α-amylase): 63.1 ± 1.41%; inhibition at 500 µg/mL (porcine α-amylase; read-out: %Inhibition (mean ± SEM), alpha amylase, concentration 500 µg/mL): 68.1 ± 0.87%; inhibition at 1000 µg/mL (porcine α-amylase): 70.29 ± 0.31%; Total Activity of glucose-6-phosphatase (glucose-6-phosphatase; concentration 125 µg/mL): 34.11 mg of P released per hour; Total Activity of glucose-6-phosphatase (glucose-6-phosphatase; concentration 250 µg/mL): 31.62 mg of P released per hour; Total Activity of glucose-6-phosphatase (glucose-6-phosphatase; concentration 500 µg/mL): 25.31 mg of P released per hour; MIC (Proteus vulgaris): 9.76 µg/mL (≈ 15.1 µM); zone of inhibition at 10 µg/mL (Proteus vulgaris): 15 mm; zone of inhibition at 20 µg/mL (Proteus vulgaris): 22 mm; zone of inhibition at 30 µg/mL (Proteus vulgaris): 24 mm; MIC (Staphylococcus aureus): 19.6 µg/mL (≈ 30.3 µM); zone of inhibition at 10 µg/mL (Staphylococcus aureus): 13 mm; zone of inhibition at 20 µg/mL (Staphylococcus aureus): 16 mm; zone of inhibition at 30 µg/mL (Staphylococcus aureus): 18 mm; IC50 (Butyrylcholinesterase): 309 µM; inhibition at 125 µg/mL (Butyrylcholinesterase): 48.1 ± 1.08%; inhibition at 250 µg/mL (Butyrylcholinesterase): 51.4 ± 2.05%; inhibition at 500 µg/mL (Butyrylcholinesterase): 56.3 ± 1.66%; inhibition at 1000 µg/mL (Butyrylcholinesterase): 57.81 ± 0.54%
O=C1O[C@H]([C@@H](O)CO)C(O)=C1O [Ascorbic acid, reference compound]					35	67.40±1.18	76.13±1.45	85.11 ± 1.64	90.14 ± 0.76							55	55.30 ± 1.75	70.14 ± 1.16	85.45 ± 1.36	88.17 ± 0.43	
